{"source": "the supplement of paper PMC10307832", "test_in_all_cases": "relative viability (nuclei count vs DMSO), 5 days (fraction); higher = more cells survive", "key": {"PC-14": {"tested_on": "PC-14", "procedure,_shortened": "(§1)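 Nuclei were stained with Hoechst during a one-step fixation (final 0.05% Triton X-100, 1% formaldehyde, 1 ug/ml Hoechst) carried out 5 days after dosing, then counted on 4× images. The cells, lung cancer lines in 1536-well plates, had been dosed by pin tool the day after seeding with one drug alone or a fixed anchor-drug dose plus five library-drug doses (not always all listed) in √10 steps. Relative viability is the nuclei count in treated wells divided by that in vehicle wells, and each value is the median of duplicate plates.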"}, "NCI-H2405": {"tested_on": "NCI-H2405", "procedure,_shortened": "as §1"}, "NCI-H322M": {"tested_on": "NCI-H322M", "procedure,_shortened": "as §1"}, "NCI-H596": {"tested_on": "NCI-H596", "procedure,_shortened": "as §1"}, "NCI-H520": {"tested_on": "NCI-H520", "procedure,_shortened": "as §1"}, "EPLC-272H": {"tested_on": "EPLC-272H", "procedure,_shortened": "as §1"}, "NCI-H3122": {"tested_on": "NCI-H3122", "procedure,_shortened": "as §1"}, "ABC-1": {"tested_on": "ABC-1", "procedure,_shortened": "as §1"}, "HCC-827": {"tested_on": "HCC-827", "procedure,_shortened": "as §1"}, "NCI-H358": {"tested_on": "NCI-H358", "procedure,_shortened": "as §1"}, "NCI-H1792": {"tested_on": "NCI-H1792", "procedure,_shortened": "as §1"}, "NCI-H647": {"tested_on": "NCI-H647", "procedure,_shortened": "as §1"}, "HOP-62": {"tested_on": "HOP-62", "procedure,_shortened": "as §1"}, "NCI-H1355": {"tested_on": "NCI-H1355", "procedure,_shortened": "as §1"}, "NCI-H1666": {"tested_on": "NCI-H1666", "procedure,_shortened": "as §1"}, "LU99A": {"tested_on": "LU99A", "procedure,_shortened": "as §1"}, "NCI-H838": {"tested_on": "NCI-H838", "procedure,_shortened": "as §1"}, "UMC-11": {"tested_on": "UMC-11", "procedure,_shortened": "as §1"}, "NCI-H23": {"tested_on": "NCI-H23", "procedure,_shortened": "as §1"}, "NCI-H2170": {"tested_on": "NCI-H2170", "procedure,_shortened": "as §1"}, "NCI-H727": {"tested_on": "NCI-H727", "procedure,_shortened": "as §1"}, "NCI-H1975": {"tested_on": "NCI-H1975", "procedure,_shortened": "as §1"}, "BEN": {"tested_on": "BEN", "procedure,_shortened": "as §1"}}, "data": [{"compound": "Cc1cnc(-c2cnc(NCCNc3ccc(C#N)cn3)nc2-c2ccc(Cl)cc2Cl)[nH]1", "note": "+ N=C(N)NC(=N)NCCc1ccccc1 [Phenformin] (partner 250 µM)", "values": [{"measurement": "relative viability", "setting": "PC-14; first compound 0.08 µM", "value": 0.586}, {"measurement": "relative viability", "setting": "PC-14; first compound 0.253 µM", "value": 0.413}, {"measurement": "relative viability", "setting": "PC-14; first compound 0.8 µM", "value": 0.568}, {"measurement": "relative viability", "setting": "PC-14; first compound 2.53 µM", "value": 0.421}, {"measurement": "relative viability", "setting": "NCI-H2405; first compound 0.08 µM", "value": 0.385}, {"measurement": "relative viability", "setting": "NCI-H2405; first compound 0.253 µM", "value": 0.418}, {"measurement": "relative viability", "setting": "NCI-H2405; first compound 0.8 µM", "value": 0.398}, {"measurement": "relative viability", "setting": "NCI-H2405; first compound 2.53 µM", "value": 0.358}, {"measurement": "relative viability", "setting": "NCI-H322M; first compound 0.08 µM", "value": 0.815}, {"measurement": "relative viability", "setting": "NCI-H322M; first compound 0.253 µM", "value": 0.725}, {"measurement": "relative viability", "setting": "NCI-H322M; first compound 0.8 µM", "value": 0.753}, {"measurement": "relative viability", "setting": "NCI-H322M; first compound 2.53 µM", "value": 0.931}, {"measurement": "relative viability", "setting": "NCI-H596; first compound 0.08 µM", "value": 0.834}, {"measurement": "relative viability", "setting": "NCI-H596; first compound 0.253 µM", "value": 0.763}, {"measurement": "relative viability", "setting": "NCI-H596; first compound 0.8 µM", "value": 0.595}, {"measurement": "relative viability", "setting": "NCI-H596; first compound 2.53 µM", "value": 0.761}, {"measurement": "relative viability", "setting": "NCI-H520; first compound 0.08 µM", "value": 0.861}, {"measurement": "relative viability", "setting": "NCI-H520; first compound 0.253 µM", "value": 0.628}, {"measurement": "relative viability", "setting": "NCI-H520; first compound 0.8 µM", "value": 0.542}, {"measurement": "relative viability", "setting": "NCI-H520; first compound 2.53 µM", "value": 0.641}, {"measurement": "relative viability", "setting": "EPLC-272H; first compound 0.08 µM", "value": 0.333}, {"measurement": "relative viability", "setting": "EPLC-272H; first compound 0.253 µM", "value": 0.318}, {"measurement": "relative viability", "setting": "EPLC-272H; first compound 0.8 µM", "value": 0.315}, {"measurement": "relative viability", "setting": "EPLC-272H; first compound 2.53 µM", "value": 0.316}, {"measurement": "relative viability", "setting": "NCI-H3122; first compound 0.08 µM", "value": 0.367}, {"measurement": "relative viability", "setting": "NCI-H3122; first compound 0.8 µM", "value": 0.383}, {"measurement": "relative viability", "setting": "NCI-H3122; first compound 2.53 µM", "value": 0.327}, {"measurement": "relative viability", "setting": "ABC-1; first compound 0.08 µM", "value": 0.259}, {"measurement": "relative viability", "setting": "ABC-1; first compound 0.253 µM", "value": 0.246}, {"measurement": "relative viability", "setting": "ABC-1; first compound 0.8 µM", "value": 0.271}, {"measurement": "relative viability", "setting": "ABC-1; first compound 2.53 µM", "value": 0.195}, {"measurement": "relative viability", "setting": "HCC-827; first compound 0.08 µM", "value": 0.384}, {"measurement": "relative viability", "setting": "HCC-827; first compound 0.8 µM", "value": 0.362}, {"measurement": "relative viability", "setting": "HCC-827; first compound 2.53 µM", "value": 0.337}, {"measurement": "relative viability", "setting": "NCI-H358; first compound 0.08 µM", "value": 0.34}, {"measurement": "relative viability", "setting": "NCI-H358; first compound 0.253 µM", "value": 0.307}, {"measurement": "relative viability", "setting": "NCI-H358; first compound 0.8 µM", "value": 0.336}, {"measurement": "relative viability", "setting": "NCI-H358; first compound 2.53 µM", "value": 0.299}, {"measurement": "relative viability", "setting": "NCI-H1792; first compound 0.08 µM", "value": 0.464}, {"measurement": "relative viability", "setting": "NCI-H1792; first compound 0.8 µM", "value": 0.329}, {"measurement": "relative viability", "setting": "NCI-H1792; first compound 2.53 µM", "value": 0.391}, {"measurement": "relative viability", "setting": "NCI-H647; first compound 0.08 µM", "value": 0.598}, {"measurement": "relative viability", "setting": "NCI-H647; first compound 0.253 µM", "value": 0.362}, {"measurement": "relative viability", "setting": "NCI-H647; first compound 0.8 µM", "value": 0.391}, {"measurement": "relative viability", "setting": "NCI-H647; first compound 2.53 µM", "value": 0.28}, {"measurement": "relative viability", "setting": "HOP-62; first compound 0.08 µM", "value": 0.754}, {"measurement": "relative viability", "setting": "HOP-62; first compound 0.253 µM", "value": 0.596}, {"measurement": "relative viability", "setting": "HOP-62; first compound 0.8 µM", "value": 0.685}, {"measurement": "relative viability", "setting": "HOP-62; first compound 2.53 µM", "value": 0.427}, {"measurement": "relative viability", "setting": "NCI-H1355; first compound 0.08 µM", "value": 0.476}, {"measurement": "relative viability", "setting": "NCI-H1355; first compound 0.253 µM", "value": 0.45}, {"measurement": "relative viability", "setting": "NCI-H1355; first compound 0.8 µM", "value": 0.479}, {"measurement": "relative viability", "setting": "NCI-H1355; first compound 2.53 µM", "value": 0.446}, {"measurement": "relative viability", "setting": "NCI-H1666; first compound 0.08 µM", "value": 0.548}, {"measurement": "relative viability", "setting": "NCI-H1666; first compound 0.253 µM", "value": 0.563}, {"measurement": "relative viability", "setting": "NCI-H1666; first compound 0.8 µM", "value": 0.553}, {"measurement": "relative viability", "setting": "NCI-H1666; first compound 2.53 µM", "value": 0.572}, {"measurement": "relative viability", "setting": "LU99A; first compound 0.08 µM", "value": 0.972}, {"measurement": "relative viability", "setting": "LU99A; first compound 0.253 µM", "value": 0.769}, {"measurement": "relative viability", "setting": "LU99A; first compound 0.8 µM", "value": 0.962}, {"measurement": "relative viability", "setting": "LU99A; first compound 2.53 µM", "value": 0.752}, {"measurement": "relative viability", "setting": "NCI-H838; first compound 0.08 µM", "value": 0.634}, {"measurement": "relative viability", "setting": "NCI-H838; first compound 0.253 µM", "value": 0.601}, {"measurement": "relative viability", "setting": "NCI-H838; first compound 0.8 µM", "value": 0.594}, {"measurement": "relative viability", "setting": "NCI-H838; first compound 2.53 µM", "value": 0.709}, {"measurement": "relative viability", "setting": "UMC-11; first compound 0.08 µM", "value": 0.339}, {"measurement": "relative viability", "setting": "UMC-11; first compound 0.253 µM", "value": 0.315}, {"measurement": "relative viability", "setting": "UMC-11; first compound 0.8 µM", "value": 0.352}, {"measurement": "relative viability", "setting": "UMC-11; first compound 2.53 µM", "value": 0.376}, {"measurement": "relative viability", "setting": "NCI-H23; first compound 0.08 µM", "value": 0.836}, {"measurement": "relative viability", "setting": "NCI-H23; first compound 0.253 µM", "value": 0.69}, {"measurement": "relative viability", "setting": "NCI-H23; first compound 0.8 µM", "value": 0.742}, {"measurement": "relative viability", "setting": "NCI-H23; first compound 2.53 µM", "value": 0.782}, {"measurement": "relative viability", "setting": "NCI-H2170; first compound 0.08 µM", "value": 0.422}, {"measurement": "relative viability", "setting": "NCI-H2170; first compound 0.253 µM", "value": 0.351}, {"measurement": "relative viability", "setting": "NCI-H2170; first compound 0.8 µM", "value": 0.412}, {"measurement": "relative viability", "setting": "NCI-H2170; first compound 2.53 µM", "value": 0.348}, {"measurement": "relative viability", "setting": "NCI-H727; first compound 0.08 µM", "value": 0.488}, {"measurement": "relative viability", "setting": "NCI-H727; first compound 0.253 µM", "value": 0.478}, {"measurement": "relative viability", "setting": "NCI-H727; first compound 0.8 µM", "value": 0.478}, {"measurement": "relative viability", "setting": "NCI-H727; first compound 2.53 µM", "value": 0.597}, {"measurement": "relative viability", "setting": "NCI-H1975; first compound 0.08 µM", "value": 0.418}, {"measurement": "relative viability", "setting": "NCI-H1975; first compound 0.253 µM", "value": 0.405}, {"measurement": "relative viability", "setting": "NCI-H1975; first compound 0.8 µM", "value": 0.384}, {"measurement": "relative viability", "setting": "NCI-H1975; first compound 2.53 µM", "value": 0.286}, {"measurement": "relative viability", "setting": "BEN; first compound 0.08 µM", "value": 0.232}, {"measurement": "relative viability", "setting": "BEN; first compound 0.253 µM", "value": 0.269}, {"measurement": "relative viability", "setting": "BEN; first compound 0.8 µM", "value": 0.252}, {"measurement": "relative viability", "setting": "BEN; first compound 2.53 µM", "value": 0.261}]}]}
